Data published in patent US7417156B2, “Orally active, antimalarial, anticancer, artemisinin-derived trioxane dimers” (Johns Hopkins University, priority 2002, dated 2008).

Legend:
NCI/ADR-RES = test: NCI 60 cell line panel screen (SRB); type: cell-based, human
NCI-H522 = test: NCI 60 cell line panel screen (SRB); type: cell-based, human
NCI-H460 = test: NCI 60 cell line panel screen (SRB); type: cell-based, human; conditions: NCI-H460 (Non-Small Cell Lung Cancer); TGI: PG=0
HT29 = test: NCI 60 cell line panel screen (SRB); type: cell-based, human; conditions: HT29 (Colon Cancer); TGI: PG=0
EKVX = test: NCI 60 cell line panel screen (SRB); type: cell-based, human
HCT-116 = test: NCI 60 cell line panel screen (SRB); type: cell-based, human; conditions: HCT-116 (Colon Cancer); TGI: PG=0
IGROVI = test: NCI 60 cell line panel screen (SRB); type: cell-based, human
HCT-15 = test: NCI 60 cell line panel screen (SRB); type: cell-based, human; conditions: HCT-15 (Colon Cancer); TGI: PG=0
A549/ATCC = test: NCI 60 cell line panel screen (SRB); type: cell-based, human
T-47D = test: NCI 60 cell line panel screen (SRB); type: cell-based, human; conditions: T-47D (Breast Cancer); TGI: PG=0
NCI-H322M = type: cell-based
786-0 = test: NCI 60 cell line panel screen (SRB); type: cell-based, human
COLO 205 = test: NCI 60 cell line panel screen (SRB); type: cell-based, human; conditions: COLO 205 (Colon Cancer); TGI: PG=0
HL-60(TB) = test: NCI 60 cell line panel screen (SRB); type: cell-based, human; conditions: HL-60(TB) (Leukemia); TGI: PG=0
UO-31 = test: NCI 60 cell line panel screen (SRB); type: cell-based, human
[1] = tested on: chloroquine-sensitive P. falciparum (NF54); test: Antimalarial activity in vitro, [3H]hypoxanthine incorporation; type: cell-based; conditions: Table I; NF54 strain; read-out: IC50
MCF7 = test: NCI 60 cell line panel screen (SRB); type: cell-based, human
TK-10 = test: NCI 60 cell line panel screen (SRB); type: cell-based, human
MALME-3M = test: NCI 60 cell line panel screen (SRB); type: cell-based, human; conditions: MALME-3M (Melanoma); TGI: PG=0
60 cell line panel = type: cell-based
[2] = mean value over the 60 cell line panel

CC1CCC2C(C)C(CC(COCC(=O)O)CC3OC4OC5(C)CCC6C(C)CCC(C3C)C46OO5)OC3OC4(C)CCC1C32OO4 (stereo not drawn) [Compound 12b, bis-trioxane O-acetic acid]
Log10GI50 (NCI/ADR-RES; Breast Cancer, NCI/ADR-RES): −6.45
Log10TGI50 (NCI/ADR-RES; NCI/ADR-RES (Breast Cancer), TGI: PG=0): >−4.30 log10M
Log10TGI50 (NCI-H522; NCI-H522 (Non-Small Cell Lung Cancer), TGI: PG=0): >−4.30 log10M
Log10GI50 (NCI-H522; Non-Small Cell Lung Cancer, NCI-H522): >−4.30
Log10TGI50 (NCI-H460): >−4.30 log10M
Log10TGI50 (HT29): >−4.30 log10M
Log10TGI50 (EKVX; EKVX (Non-Small Cell Lung Cancer), TGI: PG=0): >−4.30 log10M
Log10GI50 (EKVX; Non-Small Cell Lung Cancer, EKVX): >−4.30
Log10TGI50 (HCT-116): >−4.30 log10M
Log10TGI50 (IGROVI; IGROVI (Ovarian Cancer), TGI: PG=0): >−4.30 log10M
Log10GI50 (IGROVI; Ovarian Cancer, IGROVI): −5.06
Log10TGI50 (HCT-15): −5.00 log10M
Log10TGI50 (A549/ATCC; A549/ATCC (Non-Small Cell Lung Cancer), TGI: PG=0): >−4.30 log10M
Log10GI50 (A549/ATCC; Non-Small Cell Lung Cancer, A549/ATCC): >−4.30
Log10TGI50 (T-47D): >−4.30 log10M
Log10TGI50 (NCI-H322M; NCI-H322M (Non-Small Cell Lung Cancer), TGI: PG=0): >−4.30 log10M
Log10GI50 (NCI-H322M; Non-Small Cell Lung Cancer, NCI-H322M): −5.03
Log10TGI50 (786-0; 786-0 (Renal Cancer), TGI: PG=0): >−4.30 log10M
Log10GI50 (786-0; Renal Cancer, 786-0): −6.59
Log10TGI50 (COLO 205): −5.28 log10M
Log10TGI50 (HL-60(TB)): <−8.30 log10M
Log10GI50 (UO-31; Renal Cancer, UO-31): −5.84
Log10TGI50 (UO-31; UO-31 (Renal Cancer), TGI: PG=0): >−4.30 log10M
IC50 [1]: 3.2 nM
Log10GI50 (MCF7; Breast Cancer, MCF7): −7.37
Log10TGI50 (MCF7; MCF7 (Breast Cancer), TGI: PG=0): >−4.30 log10M
Log10GI50 (TK-10; Renal Cancer, TK-10): −7.22
Log10TGI50 (TK-10; TK-10 (Renal Cancer), TGI: PG=0): −5.22 log10M
Log10TGI50 (MALME-3M): −6.40 log10M
Log10GI50 Delta (60 cell line panel): 1.57
Log10GI50 Range (60 cell line panel): 4.00
Log10LC50 Delta (60 cell line panel; 60 cell line panel): 0.70
Log10LC50 Range (60 cell line panel; 60 cell line panel): 0.72
Log10TGI50 Delta (60 cell line panel; 60 cell line panel): 3.49
Log10TGI50 Range (60 cell line panel; 60 cell line panel): 4.00
growth inhibition in words (60 cell line panel; colon cancer KM12, ovarian cancer OVCAR 3, breast cancer MDA-MB-435): selectively and strong inhibitory
Log10GI50 MG MID (60 cell line panel; mean over panel): −6.73
Log10LC50 MG MID (60 cell line panel; [2]): −4.32 log10M
Log10TGI50 MG MID (60 cell line panel; [2]): −4.81 log10M
